Measured values published in patent US8003654B2, “N-glycinsulfonamide derivatives and uses as orexin receptor antagonists” (Actelion Pharmaceuticals Ltd., priority 2006, dated 2011).

Experiments:
human orexin-1 receptor = target: T1, human orexin-1 receptor (Homo sapiens, UniProt O43613); experiment: Intracellular calcium measurements (FLIPR), antagonism of 10 nM orexin-A in CHO cells expressing the human orexin-1 receptor; type: cell-based; conditions: CHO cells expressing human orexin-1 receptor, agonist 10 nM orexin-A, read-out: OX1 IC50
T1 construct: expressed in transfected cells; host or cells: CHO cells (G418 selection)
T1 sequence (O43613 1-425): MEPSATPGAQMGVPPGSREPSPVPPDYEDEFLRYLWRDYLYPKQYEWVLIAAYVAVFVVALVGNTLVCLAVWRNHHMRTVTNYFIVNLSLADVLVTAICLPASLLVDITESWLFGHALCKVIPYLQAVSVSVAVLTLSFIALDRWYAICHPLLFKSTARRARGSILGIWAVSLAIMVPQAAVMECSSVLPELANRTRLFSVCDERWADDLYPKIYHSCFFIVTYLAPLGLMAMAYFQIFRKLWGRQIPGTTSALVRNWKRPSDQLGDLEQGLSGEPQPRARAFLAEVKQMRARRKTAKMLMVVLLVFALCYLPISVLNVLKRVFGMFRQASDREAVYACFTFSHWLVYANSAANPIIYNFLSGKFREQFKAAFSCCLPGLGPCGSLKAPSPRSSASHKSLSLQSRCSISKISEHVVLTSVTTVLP
Description: (§1) The orexin receptor antagonistic activity of the compounds of formula (I) is determined in accordance with the following experimental method.
(§2) • Intracellular Calcium Measurements:
(§3) Chinese hamster ovary (CHO) cells expressing the human orexin-1 receptor and the human orexin-2 receptor, respectively, are grown in culture medium (Ham F-12 with L-Glutamine) containing 300 μg/ml G418, 100 U/ml penicillin, 100 μg/ml streptomycin and 10% inactivated fetal calf serum (FCS). The cells are seeded at 80,000 cells/well into 96-well black clear bottom sterile plates (Costar) which have been precoated with 1% gelatine in Hanks' Balanced Salt Solution (HBSS). All reagents are from Gibco BRL. The seeded plates are incubated overnight at 37° C. in 5% CO2.
(§4) Human orexin-A as an agonist is prepared as 1 mM stock solution in methanol:water (1:1), diluted in HBSS containing 0.1% bovine serum albumin (BSA) and 2 mM HEPES for use in the assay at a final concentration of 10 nM.
(§5) Antagonists are prepared as 10 mM stock solution in DMSO, then diluted in 96-well plates, first in DMSO, then in HBSS containing 0.1% bovine serum albumin (BSA) and 2 mM HEPES.
(§6) On the day of the assay, 100 μl of loading medium (HBSS containing 1% FCS, 2 mM HEPES, 5 mM probenecid (Sigma) and 3 μM of the fluorescent calcium indicator fluo-3 AM (1 mM stock solution in DMSO with 10% pluronic acid) (Molecular Probes) is added to each well.
(§7) The 96-well plates are incubated for 60 min at 37° C. in 5% CO2. The loading solution is then aspirated and cells are washed 3 times with 200 μl HBSS containing 2.5 mM probenecid, 0.1% BSA, 2 mM HEPES. 100 μl of that same buffer is left in each well.
(§8) Within the Fluorescent Imaging Plate Reader (FLIPR, Molecular Devices), antagonists are added to the plate in a volume of 50 μl, incubated for 20 min and finally 100 μl of agonist is added. Fluorescence is measured for each well at 1 second intervals, and the height of each fluorescence peak is compared to the height of the fluorescence peak induced by 10 nM orexin-A with buffer in place of antagonist. For each antagonist, IC50 value (the concentration of compound needed to inhibit 50% of the agonistic response) is determined. Antagonistic activities of compounds are in the nanomolar range with respect to OX1 and OX2 receptors.

human orexin-2 receptor = target: T2, human orexin-2 receptor (Homo sapiens, UniProt O43614); experiment: Intracellular calcium measurements (FLIPR), antagonism of 10 nM orexin-A in CHO cells expressing the human orexin-2 receptor; type: cell-based; conditions: CHO cells expressing human orexin-2 receptor, agonist 10 nM orexin-A, read-out: OX2 IC50
T2 construct: expressed in transfected cells; host or cells: CHO cells (G418 selection)
T2 sequence (O43614 1-444): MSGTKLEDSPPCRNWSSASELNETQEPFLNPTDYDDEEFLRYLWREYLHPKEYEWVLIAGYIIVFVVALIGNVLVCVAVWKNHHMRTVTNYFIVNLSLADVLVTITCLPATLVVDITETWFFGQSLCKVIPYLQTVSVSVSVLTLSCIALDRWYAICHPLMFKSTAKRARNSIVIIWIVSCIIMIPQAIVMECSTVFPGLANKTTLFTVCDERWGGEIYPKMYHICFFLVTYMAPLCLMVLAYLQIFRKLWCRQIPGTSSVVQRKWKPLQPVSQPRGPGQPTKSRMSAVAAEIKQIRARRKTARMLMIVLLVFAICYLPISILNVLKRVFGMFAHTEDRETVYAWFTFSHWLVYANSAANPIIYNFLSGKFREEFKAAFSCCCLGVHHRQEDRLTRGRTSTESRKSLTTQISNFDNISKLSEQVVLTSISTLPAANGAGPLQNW
Description: as §1, §2, §3, §4, §5, §6, §7, §8

CCN(CC)C(=O)CN(c1cc(N(C)C)ccc1C#N)S(=O)(=O)c1ccc(OC)c(OC)c1 [Example 58, 2-[(2-Cyano-5-dimethylamino-phenyl)-(3,4-dimethoxy-benzenesulfonyl)-amino]-N,N-diethyl-acetamide]
IC50 (human orexin-1 receptor): 166 nM | IC50 (human orexin-2 receptor): 10 nM

CCN(CC)C(=O)CN(c1ccc(Cl)cc1C#N)S(=O)(=O)c1ccc(OC)c(OC)c1 [Example 27, 2-[(4-Chloro-2-cyano-phenyl)-(3,4-dimethoxy-benzenesulfonyl)-amino]-N,N-diethyl-acetamide]
IC50 (human orexin-1 receptor): 180 nM | IC50 (human orexin-2 receptor): 2 nM

COc1ccc(S(=O)(=O)N(CC(=O)N(CCO)Cc2ccccn2)c2cc(N(C)C)ccc2Cl)cc1OC [Example 55, 2-[(2-Chloro-5-dimethylamino-phenyl)-(3,4-dimethoxy-benzenesulfonyl)-amino]-N-(2-hydroxy-ethyl)-N-pyridin-2-ylmethyl-acetamide]
IC50 (human orexin-1 receptor): 63 nM | IC50 (human orexin-2 receptor): 7 nM

CCN(Cc1cncc(C)n1)C(=S)CN(c1cc(N(C)C)ccc1Cl)S(=O)(=O)c1ccc(OC)c(OC)c1 [Example 14, 2-[(2-Chloro-5-dimethylamino-phenyl)-(3,4-dimethoxy-benzenesulfonyl)-amino]-N-ethyl-N-(6-methyl-pyrazin-2-ylmethyl)-thioacetamide]
IC50 (human orexin-1 receptor): 15 nM | IC50 (human orexin-2 receptor): 12 nM

CCN(Cc1cccc(C)n1)C(=O)CN(c1cc2c(C)nsc2cc1Cl)S(=O)(=O)c1ccc(OC)c(OC)c1 [Example 21, 2-[(6-Chloro-3-methyl-benzo[d]isothiazol-5-yl)-(3,4-dimethoxy-benzenesulfonyl)-amino]-N-ethyl-N-(6-methyl-pyridin-2-ylmethyl)-acetamide]
IC50 (human orexin-1 receptor): 8 nM | IC50 (human orexin-2 receptor): 7 nM
